Measurements taken from patent US11945806B2, “Stabilization of amyloidogenic immunoglobulin light chains” (The Scripps Research Institute, priority 2019, dated 2024).

The compounds below were run against WIL-FL (Homo sapiens, UniProt P01721) (assay: Unlabeled LC Protease Sensitivity Assay (proteinase K)). Settings: small molecule 10 μM, WIL-FL 5 μM, proteinase K 50 nM, 2 hours at 37° C.
Assay type: biochemical
Summary of the method: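 WIL-FL light chain (5 μM) in PBS pH 7.4 + 0.02% Pluronic F-127 digested with proteinase K (50 nM) for 2 h at 37 °C with 10 μM compound (1% DMSO). Intact WIL-FL quantified by size-exclusion UPLC (A280). Fold protection = (A_compound−A_vehicle)/(A_no_protease−A_vehicle) from peak areas.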

SMILES	Protection (fold protection of LC from protease)
CCN(CC)c1ccc2c(C)c(CCN3C(=O)NC4(CCN(c5ncc(C#N)cn5)CC4)C3=O)c(=O)oc2c1 [Compound 189, 2-(3-(2-(7-(diethylamino)-4-methyl-2-oxo-2H-chromen-3-yl)ethyl)-2,4-dioxo-1,3,8-triazaspiro[4.5]decan-8-yl)pyrimidine-5-carbonitrile]	A (A < 0.3))
CCN(CC)c1ccc2c(C)c(CCN3C(=O)NC4(CCN(c5nccc(C#N)n5)CC4)C3=O)c(=O)oc2c1 [Compound 190, 2-(3-(2-(7-(diethylamino)-4-methyl-2-oxo-2H-chromen-3-yl)ethyl)-2,4-dioxo-1,3,8-triazaspiro[4.5]decan-8-yl)pyrimidine-4-carbonitrile]	C (C ≥ 0.6)
CCN(CC)c1ccc2c(C)c(CCN3C(=O)NC4(CCN(c5ccc(C#N)cn5)CC4)C3=O)c(=O)oc2c1 [Compound 191, 6-(3-(2-(7-(diethylamino)-4-methyl-2-oxo-2H-chromen-3-yl)ethyl)-2,4-dioxo-1,3,8-triazaspiro[4.5]decan-8-yl)nicotinonitrile]	A (A < 0.3))
CCN(CC)c1ccc2c(C)c(CCN3C(=O)NC4(CCN(c5ncnc6[nH]ncc56)CC4)C3=O)c(=O)oc2c1 [Compound 192, 3-(2-(7-(diethylamino)-4-methyl-2-oxo-2H-chromen-3-yl)ethyl)-8-(1H-pyrazolo[3,4-d]pyrimidin-4-yl)-1,3,8-triazaspiro[4.5]decane-2,4-dione]	C (C ≥ 0.6)
CCN(CC)c1ccc2c(C)c(CCN3C(=O)NC4(CCN(c5ncccn5)C4)C3=O)c(=O)oc2c1 (centres unmarked) [Compound 194, 3-(2-(7-(diethylamino)-4-methyl-2-oxo-2H-chromen-3-yl)ethyl)-7-(pyrimidin-2-yl)-1,3,7-triazaspiro[4.4]nonane-2,4-dione]	C (C ≥ 0.6)
CCN(CC)c1ccc2c(C)c(CCN3C(=O)NC4(CCN(c5ncc(C(F)(F)F)cn5)C4)C3=O)c(=O)oc2c1 (centres unmarked) [Compound 195, 3-(2-(7-(diethylamino)-4-methyl-2-oxo-2H-chromen-3-yl)ethyl)-7-(5-(trifluoromethyl)pyrimidin-2-yl)-1,3,7-triazaspiro[4.4]nonane-2,4-dione]	A (A < 0.3))
CCN(CC)c1ccc2c(C)c(CCN3C(=O)NC4(CCN(c5ccc(C(F)(F)F)cn5)C4)C3=O)c(=O)oc2c1 (centres unmarked) [Compound 196, 3-(2-(7-(diethylamino)-4-methyl-2-oxo-2H-chromen-3-yl)ethyl)-7-(5-(trifluoromethyl)pyridin-2-yl)-1,3,7-triazaspiro[4.4]nonane-2,4-dione]	A (A < 0.3))
CCN(CC)c1ccc2c(C)c(CCN3C(=O)NC4(CCN(c5ncnc6[nH]cnc56)C4)C3=O)c(=O)oc2c1 (centres unmarked) [Compound 197, 3-(2-(7-(diethylamino)-4-methyl-2-oxo-2H-chromen-3-yl)ethyl)-7-(9H-purin-6-yl)-1,3,7-triazaspiro[4.4]nonane-2,4-dione]	C (C ≥ 0.6)
CCN(CC)c1ccc2c(C)c(CCN3C(=O)NC4(CCN(C(=O)c5ccc(C(N)=O)cc5)CC4)C3=O)c(=O)oc2c1 [Compound 198, 4-(3-(2-(7-(diethylamino)-4-methyl-2-oxo-2H-chromen-3-yl)ethyl)-2,4-dioxo-1,3,8-triazaspiro[4.5]decane-8-carbonyl)benzamide]	B (3 ≤ B < 0.6)
CCN(CC)c1ccc2c(C)c(CCN3C(=O)NC4(CCN(C(=O)c5ccc(C(N)=O)cc5)C4)C3=O)c(=O)oc2c1 (centres unmarked) [Compound 199, 4-(3-(2-(7-(diethylamino)-4-methyl-2-oxo-2H-chromen-3-yl)ethyl)-2,4-dioxo-1,3,7-triazaspiro[4.4]nonane-7-carbonyl)benzamide]	B (3 ≤ B < 0.6)
CCN(CC)c1ccc2c(C)c(CCN3C(=O)NC4(CCN(S(=O)(=O)c5ccccc5)CC4)C3=O)c(=O)oc2c1 [Compound 200, 3-(2-(7-(diethylamino)-4-methyl-2-oxo-2H-chromen-3-yl)ethyl)-8-(phenylsulfonyl)-1,3,8-triazaspiro[4.5]decane-2,4-dione]	A (A < 0.3))
CCN(CC)c1ccc2c(C)c(CCN3C(=O)NC4(CCN(S(=O)(=O)c5ccccc5)C4)C3=O)c(=O)oc2c1 (centres unmarked) [Compound 201, 3-(2-(7-(diethylamino)-4-methyl-2-oxo-2H-chromen-3-yl)ethyl)-7-(phenylsulfonyl)-1,3,7-triazaspiro[4.4]nonane-2,4-dione]	B (3 ≤ B < 0.6)
CCN(CC)c1ccc2c(C)c(CCN3C(=O)NC4(CCN(S(=O)(=O)c5cccnc5)C4)C3=O)c(=O)oc2c1 (centres unmarked) [Compound 202, 3-(2-(7-(diethylamino)-4-methyl-2-oxo-2H-chromen-3-yl)ethyl)-7-(pyridin-3-ylsulfonyl)-1,3,7-triazaspiro[4.4]nonane-2,4-dione]	C (C ≥ 0.6)
CCN(CC)c1ccc2c(C)c(CCN3C(=O)NC4(CCN(S(=O)(=O)CC)C4)C3=O)c(=O)oc2c1 (centres unmarked) [Compound 203, 3-(2-(7-(diethylamino)-4-methyl-2-oxo-2H-chromen-3-yl)ethyl)-7-(ethylsulfonyl)-1,3,7-triazaspiro[4.4]nonane-2,4-dione]	C (C ≥ 0.6)
CCN(CC)c1ccc2c(C)c(CCN3C(=O)NC4(CCN(S(=O)(=O)NC)C4)C3=O)c(=O)oc2c1 (centres unmarked) [Compound 204, 3-(2-(7-(diethylamino)-4-methyl-2-oxo-2H-chromen-3-yl)ethyl)-N-methyl-2,4-dioxo-1,3,7-triazaspiro[4.4]nonane-7-sulfonamide]	B (3 ≤ B < 0.6)
CCN(CC)c1ccc2c(C)c(CCN3C(=O)NC4(CCN(C(=O)c5ncccn5)C4)C3=O)c(=O)oc2c1 (centres unmarked) [Compound 205, 3-(2-(7-(diethylamino)-4-methyl-2-oxo-2H-chromen-3-yl)ethyl)-7-(pyrimidine-2-carbonyl)-1,3,7-triazaspiro[4.4]nonane-2,4-dione]	B (3 ≤ B < 0.6)
CCN(CC)c1ccc2c(C)c(CCN3C(=O)NC4(CCN(C(=O)c5ncccn5)CC4)C3=O)c(=O)oc2c1 [Compound 206, 3-(2-(7-(diethylamino)-4-methyl-2-oxo-2H-chromen-3-yl)ethyl)-8-(pyrimidine-2-carbonyl)-1,3,8-triazaspiro[4.5]decane-2,4-dione]	A (A < 0.3))
CCN(CC)c1ccc2c(C)c(CCN3C(=O)NC4(CCN(C(=O)c5ccncn5)C4)C3=O)c(=O)oc2c1 (centres unmarked) [Compound 207, 3-(2-(7-(diethylamino)-4-methyl-2-oxo-2H-chromen-3-yl)ethyl)-7-(pyrimidine-4-carbonyl)-1,3,7-triazaspiro[4.4]nonane-2,4-dione]	B (3 ≤ B < 0.6)
CCN(CC)c1ccc2c(C)c(CCN3C(=O)NC4(CCN(C(=O)c5ccncn5)CC4)C3=O)c(=O)oc2c1 [Compound 208, 3-(2-(7-(diethylamino)-4-methyl-2-oxo-2H-chromen-3-yl)ethyl)-8-(pyrimidine-4-carbonyl)-1,3,8-triazaspiro[4.5]decane-2,4-dione]	B (3 ≤ B < 0.6)
CCN(CC)c1ccc2c(C)c(CCN3C(=O)NC4(CCN(C(=O)c5cncnc5)C4)C3=O)c(=O)oc2c1 (centres unmarked) [Compound 209, 3-(2-(7-(diethylamino)-4-methyl-2-oxo-2H-chromen-3-yl)ethyl)-7-(pyrimidine-5-carbonyl)-1,3,7-triazaspiro[4.4]nonane-2,4-dione]	B (3 ≤ B < 0.6)
CCN(CC)c1ccc2c(C)c(CCN3C(=O)NC4(CCN(C(=O)c5cncnc5)CC4)C3=O)c(=O)oc2c1 [Compound 210, 3-(2-(7-(diethylamino)-4-methyl-2-oxo-2H-chromen-3-yl)ethyl)-8-(pyrimidine-5-carbonyl)-1,3,8-triazaspiro[4.5]decane-2,4-dione]	B (3 ≤ B < 0.6)
CCN(CC)c1ccc2c(C)c(CCN3C(=O)NC4(CCN(C(=O)c5cnccn5)C4)C3=O)c(=O)oc2c1 (centres unmarked) [Compound 211, 3-(2-(7-(diethylamino)-4-methyl-2-oxo-2H-chromen-3-yl)ethyl)-7-(pyrazine-2-carbonyl)-1,3,7-triazaspiro[4.4]nonane-2,4-dione]	B (3 ≤ B < 0.6)
CCN(CC)c1ccc2c(C)c(CCN3C(=O)NC4(CCN(C(=O)c5cnccn5)CC4)C3=O)c(=O)oc2c1 [Compound 212, 3-(2-(7-(diethylamino)-4-methyl-2-oxo-2H-chromen-3-yl)ethyl)-8-(pyrazine-2-carbonyl)-1,3,8-triazaspiro[4.5]decane-2,4-dione]	B (3 ≤ B < 0.6)
CCN(CC)c1ccc2c(C)c(CCN3C(=O)NC4(CCN(c5nccn6ccnc56)CC4)C3=O)c(=O)oc2c1 [Compound 215, 3-(2-(7-(diethylamino)-4-methyl-2-oxo-2H-chromen-3-yl)ethyl)-8-(imidazo[1,2-a]pyrazin-8-yl)-1,3,8-triazaspiro[4.5]decane-2,4-dione]	C (C ≥ 0.6)
CCN(CC)c1ccc2c(C)c(CCN3C(=O)NC4(CCN(c5ncnc6c5cnn6C)CC4)C3=O)c(=O)oc2c1 [Compound 216, 3-(2-(7-(diethylamino)-4-methyl-2-oxo-2H-chromen-3-yl)ethyl)-8-(1-methyl-1H-pyrazolo[3,4-d]pyrimidin-4-yl)-1,3,8-triazaspiro[4.5]decane-2,4-dione]	C (C ≥ 0.6)
CCN(CC)c1ccc2c(C)c(CCN3C(=O)NC4(CCN(c5nccn6cnnc56)CC4)C3=O)c(=O)oc2c1 [Compound 217, 8-([1,2,4]triazolo[4,3-a]pyrazin-8-yl)-3-(2-(7-(diethylamino)-4-methyl-2-oxo-2H-chromen-3-yl)ethyl)-1,3,8-triazaspiro[4.5]decane-2,4-dione]	C (C ≥ 0.6)
